Consider 19 compounds from patent US4788206A, “Pentadieneamides” (Hoffmann-La Roche Inc., priority 1987, dated 1988).

Test [1] relates to PAF-Induced Bronchoconstriction. Nature of the test: PAF Induced Bronchoconstriction Assay. To be noted: for inhibition in vivo at 50 mg/kg: Cavia porcellus, po, 2-hour pretreatment, read-out: Percent Inhib. of PAF-Induced Bronchoconstriction, 50 mg/Kg p.o.; for Percent Inhib. of PAF-Induced Bronchoconstriction, mg/Kg i.v.: i.v. (dose not given), 1 minute pretreatment, PAF 1.0 μg/kg i.v. Format: in vivo, guinea pig. As to the method:
PAF Induced Bronchoconstriction Assay
Male animals (Hartlet Strain 400-500 g) were anesthetized with urethane (2 g/kg. i.p.). Each animals' trachea was cannulated and the guinea pigs were repirated using a Harvard small animal rodent respirator (3.0 cc stroke volume, 40 breaths per min.). Tracheal pressure was recorded from a cannula inserted in the trachea and connected to a Statham Pressure Transducer.
The jugular vein was cannulated for administering compounds. Spontaneous breathing was arrested with succinylcholine (1.2 mg/kg. i.v.) administered 2 minutes prior to intravenous injection of platelet activating factor (PAF).
For, the intravenous testing, the guinea pig is given a 5-minute pretreatment with propranolol at a dose of 0.1 mg/kg intravenously. The test compound is administered with a 1 minute pretreatment prior to intravenous challenge with PAF. The animal is than challenged with a 1.0 μg/kg intravenous dose of PAF and the change is tracheal pressure is measured.
For the oral testing, the procedure includes a 2-hour pretreatment period with the test compound administered through an oral gavage tube. Propranolol or succinylcholine and PAF are administered intravenously, and the change in tracheal pressure measured.
The change is tracheal pressure is determined by subtracting the steady state baseline achieved after administration of succinylcholine from the peak bronchoconstriction seen after challenge with PAF. The mean is calculated for each test compound and compared to the mean of the control animals to give the percent inhibition of bronchoconstriction. The standard error is calcuated as the standard error of the mean.

The target in test [2] is T1, PAF Binding, dog platelets (Canis lupus familiaris, UniProt A0A8I3NSH0).
T1 construct: Washed platelets were prepared by resuspending the platelet pellet once with PBS containing 1 mM EDTA; from tissue; host or cells: washed platelets from dog blood
T1 sequence (A0A8I3NSH0 1-343): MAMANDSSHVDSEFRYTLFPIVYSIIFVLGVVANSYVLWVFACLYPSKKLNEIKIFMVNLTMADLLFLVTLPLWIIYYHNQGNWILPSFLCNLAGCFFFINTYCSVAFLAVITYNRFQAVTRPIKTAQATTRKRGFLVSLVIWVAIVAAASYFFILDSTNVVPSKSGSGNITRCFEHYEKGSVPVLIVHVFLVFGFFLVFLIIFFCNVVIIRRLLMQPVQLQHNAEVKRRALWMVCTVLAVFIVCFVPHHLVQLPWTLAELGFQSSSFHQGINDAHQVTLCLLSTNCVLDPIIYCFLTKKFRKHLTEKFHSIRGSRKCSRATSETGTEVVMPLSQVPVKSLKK
Put plainly: PAF Binding Assay (inhibition of 3H-PAF binding to washed dog platelets). To be noted: dog platelets, 3H-PAF, 10 minutes at room temperature; read-out: Inhib of PAF Binding IC50. As to the method: The binding assay was done in 400 μl polyethylene microcentrifuge tubes (Beckman) containing 50 μl of an oil mixture of 2 parts Siliconol AR200 (Serva): 1 part Silicone Fluid (Arthur H. Thomas). Buffer, standards, or analogs (150 μl total volume) were added to the tubes. Radiolabelled ^3 H-PAF (50 μl) was then added to the tubes. The reaction was started by the addition of 50 μl of dog platelets (2×10^7 platelets). The tubes were capped, inverted several times to mix, and incubated for 10 minutes at room temperature. The platelets were separated from the incubation mixture by centrifuging 1 minute in a Beckman Microfuge B centrifuge. The tip of the microfuge tube was cut off, and the platelets were washed out of the tip with 200 μl of 50% methanol (Burdick and Jackson). Aquasol (NEN, 10 ml) was added and the radioactivity in the samples was determined using an LS 8100 Beckman liquid scintillation counter linked to a Techtran tape recorder. Data was processed through an in-house computer system. Alternatively, radioactivity was determined using a Searle Mark III liquid scintillation counter linked to a Iso-Data microprocessor.
(b) Preparation of Platelets
Blood was collected from anesthesized or unanesthesized dogs into 50 ml plastic centrifuge tubes containing 3.8% sodium citrate as the anticoagulant (1 volume of citrate/9 volumes of blood). The red cells were removed by centrifugation for 15 minutes at 600 rpm (100-125 g) at room temperature. An aliquot of the supernatant platelet rich plasma (PRP) was saved for cell counting and the remainder was acidified to PH 6.5 with 0.15M citric acid. The platelet pellet was obtained after a 10 minute centrifugation at 2000 rpm (1000 g) at room temperature. Washed platelets were prepared by resuspending the platelet pellet once with PBS containing 1 mM EDTA, centrifuging as noted, and then resuspending the platelets in 0.1% BSA-PBS. An aliquot of the washed platelets was counted. Platelets used for binding assays were diluted to 2×10^7 platelets/assay tube (4×10^8 platelets/ml). Platelet counting was done using a Royco Cell-Crit 921.

Consider `COc1ccc(/C(=C\C=C\C(=O)NCCCCc2cccnc2)c2cccnc2)cc1` [(E,E)-5-(4-methoxyphenyl)-5-(3-pyridinyl)-N-[4-(3-pyridinyl)butyl]-2,4-pentadienamide], for which the inhibition in vivo at 50 mg/kg in test [1] (50 mg/Kg p.o.) came to 85 ± 8%. Besides, in test [1], the “Percent Inhib. of PAF-Induced Bronchoconstriction, mg/Kg i.v.” value worked out at 97 ± 0.6%. Also, the IC50 in test [2] was determined as 25 nM.
The corresponding values for `CCCCC/C(=C\C=C\C(=O)NCCCCc1cccnc1)c1ccc(OC)cc1` [(E,E)-5-(4-methoxyphenyl)-N-[4-(3-pyridinyl)butyl]-2,4-decadienamide] are 26 ± 2%, 99 ± 1% and 15 nM.
With `CCCCC/C(=C/C=C/C(=O)N[C@H](C)CCCc1cccnc1)c1cccc(F)c1` [[R-(2E,4Z)]-5-(3-fluorophenyl)-N-[1-methyl-4-(3-pyridinyl)butyl]-2,4-decadienamide], the “Percent Inhib. of PAF-Induced Bronchoconstriction, mg/Kg i.v.” value in test [1] came to 93 ± 1%. Further, the IC50 in test [2] worked out at 105 nM.
With `COc1ccc(/C(=C\C=C\C(=O)N[C@H](C)CCCc2cccnc2)C(C)C)cc1` [[R-(2E,4Z)]-5-(4-methoxyphenyl)-6-methyl-N-[1-methyl-4-(3-pyridinyl)butyl]-2,4-heptadienamide], the inhibition in vivo at 50 mg/kg in test [1] (50 mg/Kg p.o.) was determined as 71 ± 14%. Further, in test [1], the “Percent Inhib. of PAF-Induced Bronchoconstriction, mg/Kg i.v.” value is 89 ± 3%. In addition, the IC50 in test [2] is 40 nM.
As to `COc1ccc(/C(=C/C=C/C(=O)N[C@H](C)CCCc2cccnc2)c2cccs2)cc1` [[R-(2E,4Z)]-5-(4-methoxyphenyl)-N-[1-methyl-4-(3-pyridinyl)butyl]-5-(2-thienyl)-2,4-pentadienamide], in test [1] (50 mg/Kg p.o., (6 hr)), the “Percent Inhib. of PAF-Induced Bronchoconstriction, 50 mg/Kg p.o. (6 hr)” value is given as 27 ± 6%. Besides, in test [1] (50 mg/Kg p.o.), the inhibition in vivo at 50 mg/kg amounted to 96 ± 2%. In addition, the “Percent Inhib. of PAF-Induced Bronchoconstriction, mg/Kg i.v.” value in test [1] was determined as 97 ± 1%. Besides, the IC50 in test [2] turned out to be 16 nM.
In the case of `COc1ccc(/C(=C\C=C\C(=O)N[C@H](C)CCCc2cccnc2)C2CC2)cc1` [[R-(2E,4Z)]-5-cyclopropyl-5-(4-methoxyphenyl)-N-1-methyl-4-(3-pyridinyl)butyl]-2,4-pentadienamide], the inhibition in vivo at 50 mg/kg in test [1] (50 mg/Kg p.o.) came to 63 ± 19%. The “Percent Inhib. of PAF-Induced Bronchoconstriction, mg/Kg i.v.” value in test [1] was determined as 85 ± 4%. In test [2], the IC50 is 70 nM.
With `COc1ccc(C(=C/C=C/C(=O)N[C@H](C)CCCc2cccnc2)c2ccc(OC)c(OC)c2)cc1OC` [[R-(E)]-5,5-bis(3,4-dimethoxyphenyl)-N-[1-methyl-4-(3-pyridinyl)butyl]-2,4-pentadienamide], the inhibition in vivo at 50 mg/kg in test [1] (50 mg/Kg p.o.) amounted to 66 ± 19%. For the same compound, the “Percent Inhib. of PAF-Induced Bronchoconstriction, mg/Kg i.v.” value in test [1] worked out at 99 ± 1%. In test [2], the IC50 amounted to 50 nM.
Take `Cc1ccc(C(=C/C=C/C(=O)N[C@H](C)CCCc2cccnc2)c2ccc(C)cc2)cc1` [[R-(E)]-5,5-bis(4-methylphenyl)-N-[1-methyl-4-(3-pyridinyl)butyl]-2,4-pentadienamide]: in test [1] (50 mg/Kg p.o.), the “Percent Inhib. of PAF-Induced Bronchoconstriction, 50 mg/Kg p.o. (8 hr)” value is 14 ± 16% and the inhibition in vivo at 50 mg/kg amounted to 91 ± 7%. Besides, in test [1], the “Percent Inhib. of PAF-Induced Bronchoconstriction, mg/Kg i.v.” value was found to be 97 ± 3%. Besides, the IC50 in test [2] is 250 nM.
Take `CC[C@H](CCCc1cccnc1)NC(=O)/C=C/C=C(c1ccc(OC)cc1)c1ccc(OC)cc1` [[R-(E)]-N-[1-ethyl-4-(3-pyridinyl)butyl]-5,5-bis(4-methoxyphenyl)-2,4-pentadienamide]: in test [1] (50 mg/Kg p.o.), the “Percent Inhib. of PAF-Induced Bronchoconstriction, 50 mg/Kg p.o. (8 hr)” value is listed as 85 ± 12% and the inhibition in vivo at 50 mg/kg is 99 ± 1%. Further, the “Percent Inhib. of PAF-Induced Bronchoconstriction, mg/Kg i.v.” value in test [1] was 99 ± 0.4%. Further, the IC50 in test [2] was 120 nM.
Take `CCCCCC(=C/C=C/C(=O)N[C@H](C)CCCc1cccnc1)CCCCC` [[R-(E)]-N-[1-methyl-4-(3-pyridinyl)butyl]-5-pentyl-2,4-decadienamide]: the inhibition in vivo at 50 mg/kg in test [1] (50 mg/Kg p.o.) was 4 ± 4%. Further, in test [1], the “Percent Inhib. of PAF-Induced Bronchoconstriction, mg/Kg i.v.” value is 78 ± 7%. The IC50 in test [2] came out at 100 nM.
`CCCCC/C(=C\C=C\C(=O)N[C@H](C)CCCc1cccnc1)c1ccc(OC)c(OC)c1` [[R-(E,E)]-5-(3,4-dimethoxyphenyl)-N-[1-methyl-4-(3-pyridinyl)butyl]-2,4-decadienamide]: the “Percent Inhib. of PAF-Induced Bronchoconstriction, mg/Kg i.v.” value in test [1] is on record as 99 ± 0.4%. Moreover, the IC50 in test [2] came to 6 nM.
Regarding `CCCCC/C(=C\C=C\C(=O)N[C@H](C)CCCc1cccnc1)c1cccc(F)c1` [[R-(E,E)]-5-(3-fluorophenyl)-N-[1-methyl-4-(3-pyridinyl)butyl]-2,4-decadienamide], in test [1], the “Percent Inhib. of PAF-Induced Bronchoconstriction, mg/Kg i.v.” value was determined as 93 ± 0.9%. Besides, in test [2], the IC50 is 30 nM.
The matching figures for `CCCC/C(=C\C=C\C(=O)N[C@H](C)CCCc1cccnc1)c1cccc(OC)c1` [[R-(E,E)]-5-(3-methoxyphenyl)-N-[1-methyl-4-(3-pyridinyl)butyl]-2,4-nonadienamide]: 91 ± 5% and 15 nM.
Regarding `CCCCC/C(=C\C=C\C(=O)N[C@H](C)CCCc1cccnc1)c1ccc(F)cc1` [[R-(E,E)]-5-(4-fluorophenyl)-N-[1-methyl-4-(3-pyridinyl)butyl]-2,4-decadienamide], the “Percent Inhib. of PAF-Induced Bronchoconstriction, mg/Kg i.v.” value in test [1] came out at 95 ± 1%. Besides, the IC50 in test [2] amounted to 40 nM.
Consider `COc1ccc(/C(=C/C=C/C(=O)N[C@H](C)CCCc2cccnc2)C(C)C)cc1` [[R-(E,E)]-5-(4-methoxyphenyl)-6-methyl-N-[1-methyl-4-(3-pyridinyl)butyl]-2,4-heptadienamide], for which the “Percent Inhib. of PAF-Induced Bronchoconstriction, mg/Kg i.v.” value in test [1] was 38 ± 11%. Moreover, the IC50 in test [2] is 30 nM.
As for `CCCCCCCCCCCC/C(=C\C=C\C(=O)N[C@H](C)CCCc1cccnc1)c1ccc(OC)cc1` [[R-(E,E)]-5-(4-methoxyphenyl)-N-[1-methyl-4-(3-pyridinyl)butyl]-2,4-heptadecadienamide], in test [1], the “Percent Inhib. of PAF-Induced Bronchoconstriction, mg/Kg i.v.” value amounted to 28 ± 2%. Also, the concentration for half-maximal inhibition (IC50) in test [2] was 45 nM.
With `CC/C(=C\C=C\C(=O)N[C@H](C)CCCc1cccnc1)c1ccc(OC)cc1` [[R-(E,E)]-5-(4-methoxyphenyl)-N-[1-methyl-4-(3-pyridinyl)butyl]-2,4-heptadienamide], the inhibition in vivo at 50 mg/kg in test [1] (50 mg/Kg p.o.) was found to be 84 ± 2%. Further, the “Percent Inhib. of PAF-Induced Bronchoconstriction, mg/Kg i.v.” value in test [1] amounted to 72 ± 13%. Besides, in test [2], the IC50 is 30 nM.
Consider `COc1ccc(/C(C)=C/C=C/C(=O)N[C@H](C)CCCc2cccnc2)cc1` [[R-(E,E)]-5-(4-methoxyphenyl)-N-[1-methyl-4-(3-pyridinyl)butyl]-2,4-hexadienamide], for which the “Percent Inhib. of PAF-Induced Bronchoconstriction, mg/Kg i.v.” value in test [1] amounted to 42 ± 16%. In test [2], the half-inhibitory concentration (IC50) stood at 25 nM.
In the case of `CCCC/C(=C\C=C\C(=O)N[C@H](C)CCCc1cccnc1)c1ccc(OC)cc1` [[R-(E,E)]-5-(4-methoxyphenyl)-N-[1-methyl-4-(3-pyridinyl)butyl]-2,4-nonadienamide], in test [1] (50 mg/Kg p.o.), the inhibition in vivo at 50 mg/kg worked out at 98 ± 1%. For the same compound, the “Percent Inhib. of PAF-Induced Bronchoconstriction, mg/Kg i.v.” value in test [1] stood at 99 ± 1%. Moreover, the IC50 in test [2] turned out to be 14 nM.

A word on the IC50: it is the midpoint of a concentration-inhibition curve.
